# Measured values: ChEMBL document CHEMBL1250534, “Gentisides C-K: nine new neuritogenic compounds from the traditional Chinese medicine Gentiana rigescens Franch” (2010)
# The source made the active and inactive calls. No cut-off for these calls is given here.
# Legend:
# PC-12 [1] = assay: Neuritogenic activity in rat PC12 cells assessed as induction of multipolar neurite outgrowth at 1 uM after 48 hrs; type: functional, cell-based
# PC-12 [2] = assay: Neuritogenic activity in rat PC12 cells assessed as induction of bipolar neurite outgrowth at 1 uM after 48 hrs; type: functional, cell-based
# PC-12 [3] = assay: Cytotoxicity against rat PC12 cells at 1 uM; type: functional, cell-based
# PC-12 [4] = assay: Neuritogenic activity in rat PC12 cells assessed as induction of neurite outgrowth at 1 to 30 uM after 48 hrs; type: functional
# PC-12 [5] = assay: Neuritogenic activity in rat PC12 cells assessed as induction of neurite outgrowth after 48 hrs; type: functional, cell-based
# PC-12 [6] = assay: Neuritogenic activity in rat PC12 cells assessed as induction of neurite outgrowth at 0.03 uM after 48 hrs; type: functional, cell-based
# PC-12 [7] = assay: Neuritogenic activity in rat PC12 cells assessed as induction of neurite outgrowth at 1 uM after 48 hrs; type: functional
# PC-12 [8] = assay: Neuritogenic activity in rat PC12 cells assessed as induction of neurite outgrowth at 30 uM after 48 hrs; type: functional
SMILES,Activity (PC-12 [4]),other results
CC[C@H](C)CCCCCCCCCCCCCOC(=O)c1cccc(O)c1O [GENTISIDE C],67%,Activity (PC-12 [1]): Active; Activity (PC-12 [2]): Active; Activity (PC-12 [3]): inactive; Activity (PC-12 [5]): Dose-dependent effect; Activity (PC-12 [6]): Active; Activity (PC-12 [7]): 91%
CC(C)CCCCCCCCCCCCCCCOC(=O)c1cccc(O)c1O [GENTISIDE D],67%,
CCCCCCCCCCCCCCCCCCOC(=O)c1cccc(O)c1O [GENTISIDE E],67%,
CC[C@H](C)CCCCCCCCCCCCCCCOC(=O)c1cccc(O)c1O [GENTISIDE F],67%,
CC[C@H](C)CCCCCCCCCCCCCCCCOC(=O)c1cccc(O)c1O [GENTISIDE G],67%,
CC[C@H](C)CCCCCCCCCCCCCCCCCOC(=O)c1cccc(O)c1O [GENTISIDE H],67%,
CCCCCCCCCCCCCCCCCCCCCOC(=O)c1cccc(O)c1O [GENTISIDE I],67%,
CCCCCCCCCCCCCCCCCCCCCCOC(=O)c1cccc(O)c1O [GENTISIDE J],67%,
CCCCCCCCCCCCCCCCCCCCCCCCOC(=O)c1cccc(O)c1O [GENTISIDE K],,Activity (PC-12 [8]): 48%
